Source: US20250354049A1, “CORROSION-INHIBITING AGENTS FOR REDUCING DISSOLVED OXYGEN CONCENTRATIONS WITHIN UPSTREAM OILFIELD SYSTEMS” (Finoric LLC, priority 2024, published 2025)
Values after ≈ are worked out from the molar mass of the structure shown. “Also recorded” adds a separate entry of the source. Read-outs that look alike come from different tables or passages of the source.

What was measured:
[1] = cited from earlier work
[2] = Example 1: oxygen scavenging in deionized water, impact of temperature and activator; details: for dissolved oxygen scavenged: absence of catalyst, after 6 h, pH ~6.4, deionized water; for dissolved oxygen scavenged / time until all detectable dissolved oxygen was scavenged: 200 ppm; for time until all detectable dissolved oxygen was scavenged: with activator CuSO4·5H2O 10 ppm, pH ~6.4
Protocol: To prepare the experiment, 500 mL of deionized water (saturated with dissolved oxygen) was placed in a 3-neck round bottom flask, and a calibrated dissolved oxygen probe was inserted into the center neck. FIG. 5 provides picture 500 of the experiment setup. The water was stirred magnetically, and the pH and temperature were adjusted to the indicated values. Temperature was controlled by heating in a water bath, and pH was adjusted to ˜6.4 with dilute hydrogen chloride (HCl). […] The corrosion-inhibiting agent and activator (if used) were injected via micropipette through one of the side necks in the flask. […] The flask was then sealed and dissolved oxygen was monitored continuously as a function of time.

[3] = Example 6: oxygen scavenging in deionized water with and without P110 steel coupon
Protocol: For a first test, no steel coupon was present but for a second test, a P110 steel coupon was suspended in the water. The dissolved oxygen was measured as a function of time at room temperature (˜ 70° F.) for both tests. FIG. 10 provides a picture 1000 of the second test in which the steel coupon was submerged in the deionized water within the glass vessel.
At the 180 min mark, the temperature was increased from 70° F. to 100° F. in both tests.

[4] = cited from earlier work; remark: listed apart in the source
[5] = solvents named; cited from earlier work
[6] = second test, P110 steel coupon present, 200 ppm, ~70° F.

Row | Compound | ~pKa [1] | Solubility in Water (in words) [4] | Solubility in Other Solvents [5] | other results
1 | N.O=S(O)O [Ammonium bisulfite] | 7 | – | – | –
2 | O=C1O[C@H]([C@@H](O)CO)C(O)=C1O [Ascorbic Acid] | – | – | – | reaction with dissolved oxygen (in words) ([2]; absence of activator, FIG. 6 solid lines): relatively sluggish; dissolved oxygen scavenged ([2]; 100° F.): approximately 35%; dissolved oxygen scavenged ([2]; 135° F.): ~93%; reaction rate with dissolved oxygen (in words) ([2]; copper catalyst (CuSO4·5H2O) added, FIG. 6 dashed lines): significant increase in reaction rate; time until all detectable dissolved oxygen was scavenged ([2]; 100° F.): ≤ 2 min; time until all detectable dissolved oxygen was scavenged ([2]; ambient temperature (72° F.)): ≤ 15 min; dissolved oxygen left behind ([3]; after temperature increased from 70° F. to 100° F. at the 180 min mark): ~0.37 ppm; dissolved oxygen after bolus of copper catalyst ([3]; copper catalyst (10 ppm) injected at the 235 min mark, 100° F.): non-detectable levels; dissolved oxygen concentration after 4 h ([3]; first test without coupon, 200 ppm, dropped from 9.05 ppm, room temperature (~70° F.)): 5.23 ppm; reaction with dissolved oxygen (in words) ([3]; first test without coupon, 200 ppm, ~70° F.): only a slow reaction was observed; rate of reaction with dissolved oxygen (in words) [3, 6]: increased significantly; time after which the scavenging reaction stalled [3, 6]: 180 min
3 | NNC(=O)NN [Carbohydrazide] | 11.81 | Very | ethanol | –
4 | CCN(O)CC [Diethylhydroxylamine (DEHA), diethylhydroxylamine] | 5.7 | Miscible | – | –
5 | NN [Hydrazine] | 8-9 | Miscible | Ethanol,; also recorded: methanol | –
6 | Oc1ccc(O)cc1 [Hydroquinone (HQ), Hydroquinone] | 9.9 | – | Ethanol,; also recorded: acetone | Solubility in Water [4]: 59 mg/mL (≈ 536 mM)
7 | CCC(C)=NO [Methylethylketoxime (MEKO), Methylethylketoxime] | – | Miscible | Ethanol | –
8 | O=S([O-])O.[Na+] [Sodium Bisulfite] | ~7 | – | – | ~pKa ([1]; listed as sodium bisulfite): ~7
9 | O=S([O-])S(=O)(=O)[O-].[Na+].[Na+] [Sodium Metabisulfite, reference compound] | ~1.8 | – | Glycerol,; also recorded: ethanol | Solubility in Water [4]: 653 mg/mL
10 | O=S([O-])[O-].[Na+].[Na+] [Sodium Sulfite] | ~9 | – | – | ~pKa ([1]; listed as sodium sulfite): ~9
11 | O=S([O-])([O-])=S.[Na+].[Na+] [Sodium Thiosulfate] | 1.74 | – | – | –
